Assay results: ChEMBL document CHEMBL5260845, “Flavone-based arylamides as potential anticancers: Design, synthesis and in vitro cell-based/cell-free evaluations” (2020)
Activity calls are given as the source filed them. The rule behind the calls is not given here.

What was measured:
HOP-62 = assay: Antiproliferative activity against human HOP-62 cells assessed as cell growth inhibition at 10 uM by SRB assay relative to control; type: functional
A549 = assay: Antiproliferative activity against human A549 cells assessed as cell growth inhibition at 10 uM by SRB assay relative to control; type: functional
[1] = biological target: Proto-oncogene tyrosine-protein kinase receptor Ret (Homo sapiens) (UniProt P07949); assay: Inhibition of RET (unknown origin) at 10 uM by biochemical hotspot kinase assay
Proto-oncogene tyrosine-protein kinase receptor Ret (Homo sapiens), sequence (P07949 whole entry): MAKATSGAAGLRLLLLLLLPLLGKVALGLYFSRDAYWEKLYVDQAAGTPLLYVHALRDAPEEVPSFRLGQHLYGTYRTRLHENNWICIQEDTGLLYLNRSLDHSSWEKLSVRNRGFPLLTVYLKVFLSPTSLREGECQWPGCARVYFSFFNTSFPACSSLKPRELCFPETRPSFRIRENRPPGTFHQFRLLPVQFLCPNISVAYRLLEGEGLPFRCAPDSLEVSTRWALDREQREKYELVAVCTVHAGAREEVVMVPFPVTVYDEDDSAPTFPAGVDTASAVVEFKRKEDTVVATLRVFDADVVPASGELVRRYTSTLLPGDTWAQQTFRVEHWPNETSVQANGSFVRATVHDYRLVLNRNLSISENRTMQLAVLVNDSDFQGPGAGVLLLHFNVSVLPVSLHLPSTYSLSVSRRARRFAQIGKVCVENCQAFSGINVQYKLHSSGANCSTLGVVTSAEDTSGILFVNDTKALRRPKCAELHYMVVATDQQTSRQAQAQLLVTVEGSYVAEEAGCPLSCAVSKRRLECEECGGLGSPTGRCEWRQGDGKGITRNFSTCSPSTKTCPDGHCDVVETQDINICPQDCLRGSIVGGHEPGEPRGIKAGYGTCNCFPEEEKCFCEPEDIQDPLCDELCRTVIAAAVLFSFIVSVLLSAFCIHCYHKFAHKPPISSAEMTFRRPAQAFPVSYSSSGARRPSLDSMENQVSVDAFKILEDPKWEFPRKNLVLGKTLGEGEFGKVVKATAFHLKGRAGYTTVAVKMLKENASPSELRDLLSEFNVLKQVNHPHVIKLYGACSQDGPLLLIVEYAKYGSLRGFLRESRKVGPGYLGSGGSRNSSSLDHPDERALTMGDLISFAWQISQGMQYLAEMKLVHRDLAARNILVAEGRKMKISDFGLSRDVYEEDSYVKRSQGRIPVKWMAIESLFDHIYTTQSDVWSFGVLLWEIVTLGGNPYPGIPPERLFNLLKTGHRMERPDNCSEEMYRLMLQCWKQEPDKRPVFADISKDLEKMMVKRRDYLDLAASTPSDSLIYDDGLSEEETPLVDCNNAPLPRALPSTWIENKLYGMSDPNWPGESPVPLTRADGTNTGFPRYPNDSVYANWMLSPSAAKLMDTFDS

[2] = biological target: Vascular endothelial growth factor receptor 2 (Homo sapiens) (UniProt P35968); assay: Inhibition of VEGFR2 (unknown origin) at 10 uM by biochemical hotspot kinase assay
[3] = biological target: Aurora kinase A (Homo sapiens) (UniProt O14965); assay: Inhibition of Aurora A (unknown origin) at 10 uM by biochemical hotspot kinase assay
[4] = biological target: Mitogen-activated protein kinase kinase kinase kinase 4 (Homo sapiens) (UniProt O95819); assay: Inhibition of HGK (unknown origin) at 10 uM by biochemical hotspot kinase assay relative to control
Mitogen-activated protein kinase kinase kinase kinase 4 (Homo sapiens), sequence (O95819 2-1239 limits assumed): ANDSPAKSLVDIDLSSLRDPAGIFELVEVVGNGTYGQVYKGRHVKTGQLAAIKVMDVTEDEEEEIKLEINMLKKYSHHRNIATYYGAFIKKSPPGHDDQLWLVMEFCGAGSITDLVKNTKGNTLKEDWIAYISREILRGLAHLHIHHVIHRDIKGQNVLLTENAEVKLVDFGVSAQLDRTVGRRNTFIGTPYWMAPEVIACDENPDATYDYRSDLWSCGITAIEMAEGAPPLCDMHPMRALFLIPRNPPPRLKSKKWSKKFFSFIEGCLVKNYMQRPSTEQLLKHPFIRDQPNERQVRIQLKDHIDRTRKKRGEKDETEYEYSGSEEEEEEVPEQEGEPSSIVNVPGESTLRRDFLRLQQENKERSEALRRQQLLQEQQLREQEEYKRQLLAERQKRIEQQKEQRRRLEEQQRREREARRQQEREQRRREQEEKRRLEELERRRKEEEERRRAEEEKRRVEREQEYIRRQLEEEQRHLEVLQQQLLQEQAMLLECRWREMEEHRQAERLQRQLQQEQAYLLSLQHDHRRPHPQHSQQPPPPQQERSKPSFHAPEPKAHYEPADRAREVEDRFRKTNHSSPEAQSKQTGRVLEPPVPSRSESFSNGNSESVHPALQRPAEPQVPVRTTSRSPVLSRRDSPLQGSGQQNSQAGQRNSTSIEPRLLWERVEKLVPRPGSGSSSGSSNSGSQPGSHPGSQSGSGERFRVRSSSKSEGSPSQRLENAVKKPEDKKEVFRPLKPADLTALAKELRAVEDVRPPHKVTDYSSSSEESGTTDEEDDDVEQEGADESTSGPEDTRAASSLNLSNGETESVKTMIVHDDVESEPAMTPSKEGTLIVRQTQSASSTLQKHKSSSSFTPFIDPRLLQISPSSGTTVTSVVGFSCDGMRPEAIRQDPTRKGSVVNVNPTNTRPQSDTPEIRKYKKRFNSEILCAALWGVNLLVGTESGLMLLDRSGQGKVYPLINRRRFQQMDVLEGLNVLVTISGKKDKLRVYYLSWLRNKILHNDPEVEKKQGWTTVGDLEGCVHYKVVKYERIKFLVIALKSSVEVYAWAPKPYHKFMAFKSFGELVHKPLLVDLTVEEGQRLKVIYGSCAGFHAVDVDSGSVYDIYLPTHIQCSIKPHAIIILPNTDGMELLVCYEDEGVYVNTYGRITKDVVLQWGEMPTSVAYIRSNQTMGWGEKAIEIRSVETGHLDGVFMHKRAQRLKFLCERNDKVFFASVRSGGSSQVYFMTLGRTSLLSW

[5] = biological target: Wee1-like protein kinase (Homo sapiens) (UniProt P30291); assay: Inhibition of WEE1 (unknown origin) at 10 uM by biochemical hotspot kinase assay
HT-29 = assay: Induction of cell cycle arrest in human HT-29 cells assessed as reduction in accumulation of cells at S phase at 2.5 to 10 uM incubated for 24 hrs by PI staining based analysis; type: functional; conditions: dose 2.5-10 µM
SNB-75 = assay: Antiproliferative activity against human SNB-75 cells assessed as cell growth inhibition at 10 uM by SRB assay relative to control; type: functional
[6] = biological target: Vascular endothelial growth factor receptor 3 (Homo sapiens) (UniProt P35916); assay: Inhibition of VEGFR3 (unknown origin) at 10 uM by biochemical hotspot kinase assay relative to control
[7] = biological target: Serine/threonine-protein kinase 17A (Homo sapiens) (UniProt Q9UEE5); assay: Inhibition of DRAK1 (unknown origin) at 10 uM by biochemical hotspot kinase assay relative to control
Serine/threonine-protein kinase 17A (Homo sapiens), sequence (Q9UEE5 whole entry): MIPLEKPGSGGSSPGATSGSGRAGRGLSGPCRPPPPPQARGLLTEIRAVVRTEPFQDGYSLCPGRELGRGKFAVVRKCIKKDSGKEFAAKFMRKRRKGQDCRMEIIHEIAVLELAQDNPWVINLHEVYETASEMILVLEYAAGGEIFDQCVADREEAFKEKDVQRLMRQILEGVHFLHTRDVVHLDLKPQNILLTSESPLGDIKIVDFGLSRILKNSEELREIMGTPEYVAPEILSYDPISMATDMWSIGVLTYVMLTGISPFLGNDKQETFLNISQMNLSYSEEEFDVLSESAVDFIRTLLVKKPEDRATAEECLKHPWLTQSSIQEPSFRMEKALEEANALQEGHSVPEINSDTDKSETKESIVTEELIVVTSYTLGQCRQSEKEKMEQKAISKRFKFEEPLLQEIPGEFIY

[8] = biological target: Receptor tyrosine-protein kinase erbB-4 (Homo sapiens) (UniProt Q15303); assay: Inhibition of ERBB4 (unknown origin) at 10 uM by biochemical hotspot kinase assay relative to control
Receptor tyrosine-protein kinase erbB-4 (Homo sapiens), sequence (Q15303 whole entry): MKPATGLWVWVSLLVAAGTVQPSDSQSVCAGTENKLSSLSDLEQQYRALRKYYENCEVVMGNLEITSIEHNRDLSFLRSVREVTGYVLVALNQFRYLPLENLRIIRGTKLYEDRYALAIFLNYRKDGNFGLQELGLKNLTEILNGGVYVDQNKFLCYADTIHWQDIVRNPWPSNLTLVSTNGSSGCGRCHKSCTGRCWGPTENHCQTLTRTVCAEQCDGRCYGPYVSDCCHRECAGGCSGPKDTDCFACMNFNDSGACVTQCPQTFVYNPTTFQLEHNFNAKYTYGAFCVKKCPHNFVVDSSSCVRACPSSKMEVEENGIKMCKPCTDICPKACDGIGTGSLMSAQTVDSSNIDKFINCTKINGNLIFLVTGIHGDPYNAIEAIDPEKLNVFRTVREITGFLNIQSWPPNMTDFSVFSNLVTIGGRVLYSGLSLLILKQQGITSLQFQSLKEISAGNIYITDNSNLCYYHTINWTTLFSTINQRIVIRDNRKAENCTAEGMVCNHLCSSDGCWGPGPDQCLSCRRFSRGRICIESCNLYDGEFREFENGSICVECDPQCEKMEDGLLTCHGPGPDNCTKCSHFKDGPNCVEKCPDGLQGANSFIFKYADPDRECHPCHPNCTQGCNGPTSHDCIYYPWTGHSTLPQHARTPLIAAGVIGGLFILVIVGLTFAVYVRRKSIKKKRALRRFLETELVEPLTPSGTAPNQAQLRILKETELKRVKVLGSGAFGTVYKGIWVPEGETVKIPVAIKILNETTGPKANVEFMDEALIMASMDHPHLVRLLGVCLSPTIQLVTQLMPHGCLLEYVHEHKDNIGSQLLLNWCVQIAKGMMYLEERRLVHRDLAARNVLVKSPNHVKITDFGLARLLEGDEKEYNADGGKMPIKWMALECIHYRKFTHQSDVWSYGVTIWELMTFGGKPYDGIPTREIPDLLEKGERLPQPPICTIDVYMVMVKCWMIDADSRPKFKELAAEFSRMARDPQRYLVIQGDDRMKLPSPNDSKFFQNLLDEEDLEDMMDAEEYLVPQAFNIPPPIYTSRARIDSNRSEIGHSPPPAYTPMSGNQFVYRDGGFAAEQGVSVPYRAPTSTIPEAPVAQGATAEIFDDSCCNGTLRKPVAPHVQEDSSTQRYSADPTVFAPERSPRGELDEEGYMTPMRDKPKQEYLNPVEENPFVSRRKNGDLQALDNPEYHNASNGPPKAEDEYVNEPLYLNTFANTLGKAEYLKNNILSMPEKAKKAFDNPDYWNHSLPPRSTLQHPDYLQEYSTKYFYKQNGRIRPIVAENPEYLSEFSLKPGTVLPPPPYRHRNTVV

[9] = biological target: Cyclin-dependent kinase 1/cyclin B (Homo sapiens) (UniProt P06493+P14635+Q8WWL7+O95067); assay: Inhibition of CDK1/cyclin B (unknown origin) at 10 uM by biochemical hotspot kinase assay; type: protein-complex assay
[10] = biological target: Misshapen-like kinase 1 (Homo sapiens) (UniProt Q8N4C8); assay: Inhibition of MINK (unknown origin) at 10 uM by biochemical hotspot kinase assay relative to control
[11] = biological target: Vascular endothelial growth factor receptor 1 (Homo sapiens) (UniProt P17948); assay: Inhibition of VEGFR1 (unknown origin) at 10 uM by biochemical hotspot kinase assay relative to control
[12] = biological target: Serine/threonine-protein kinase PLK2 (Homo sapiens) (UniProt Q9NYY3); assay: Inhibition of PLK2 (unknown origin) at 10 uM by biochemical hotspot kinase assay relative to control
Serine/threonine-protein kinase PLK2 (Homo sapiens), sequence (Q9NYY3 whole entry, looked up): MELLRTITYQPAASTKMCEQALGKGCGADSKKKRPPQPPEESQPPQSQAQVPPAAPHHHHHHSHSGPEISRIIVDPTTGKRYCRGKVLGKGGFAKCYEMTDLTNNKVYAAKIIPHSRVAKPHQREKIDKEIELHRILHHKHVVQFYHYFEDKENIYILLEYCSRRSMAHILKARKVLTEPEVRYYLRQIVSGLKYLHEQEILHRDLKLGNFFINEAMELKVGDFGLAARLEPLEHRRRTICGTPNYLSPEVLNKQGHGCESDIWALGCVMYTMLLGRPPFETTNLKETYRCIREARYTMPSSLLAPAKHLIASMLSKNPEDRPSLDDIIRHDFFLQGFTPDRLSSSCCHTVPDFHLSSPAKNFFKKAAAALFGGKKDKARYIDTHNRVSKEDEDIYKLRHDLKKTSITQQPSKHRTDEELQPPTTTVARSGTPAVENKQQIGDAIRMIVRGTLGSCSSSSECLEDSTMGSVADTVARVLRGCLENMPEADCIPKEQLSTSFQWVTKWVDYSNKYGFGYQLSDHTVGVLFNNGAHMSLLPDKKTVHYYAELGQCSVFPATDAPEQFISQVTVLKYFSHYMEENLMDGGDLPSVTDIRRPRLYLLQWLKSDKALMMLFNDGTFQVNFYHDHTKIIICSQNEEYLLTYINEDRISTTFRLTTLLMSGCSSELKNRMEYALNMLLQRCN

[13] = biological target: Mitogen-activated protein kinase 1 (Homo sapiens) (UniProt P28482); assay: Inhibition of ERK2 (unknown origin) at 10 uM by biochemical hotspot kinase assay relative to control
[14] = biological target: Interleukin-1 receptor-associated kinase 4 (Homo sapiens) (UniProt Q9NWZ3); assay: Inhibition of IRAK4 (unknown origin) at 10 uM by biochemical hotspot kinase assay
[15] = biological target: RAF proto-oncogene serine/threonine-protein kinase (Homo sapiens) (UniProt P04049); assay: Inhibition of c-RAF (unknown origin) at 10 uM by biochemical hotspot kinase assay relative to control
[16] = biological target: Ribosomal protein S6 kinase alpha-1 (Homo sapiens) (UniProt Q15418); assay: Inhibition of RSK1 (unknown origin) at 10 uM by biochemical hotspot kinase assay

SMILES	inhibition at 10 µM (HOP-62) [%]	inhibition at 10 µM (A549) [%]	inhibition [1]	inhibition [2]	inhibition [3]	inhibition [4] [%]	inhibition [5]	Activity (HT-29)	inhibition at 10 µM (SNB-75) [%]	inhibition [6] [%]	inhibition [7] [%]	inhibition [8] [%]	inhibition [9]	inhibition [10] [%]	inhibition [11] [%]	inhibition [12] [%]	inhibition [13] [%]	inhibition [14]	inhibition [15] [%]	inhibition [16]
COc1cc2oc(-c3cccc(C(=O)Nc4ccc(Cl)cc4)c3)cc(=O)c2c(OC)c1OC	87.2	74.8	–	–	–	–	–	–	–	–	–	–	–	–	–	–	–	–	–	–
COc1cc2oc(-c3cccc(C(=O)Nc4ccc(C)cc4)c3)cc(=O)c2c(OC)c1OC	–	–	inactive	inactive	inactive	48.8	inactive	Active	> 50	8.65	3.24	16	inactive	41	14.9	10.5	17.2	inactive	3.26	inactive
